# Paper PMC9594040, “Structure-Based Discovery of Negative Allosteric Modulators of the Metabotropic Glutamate Receptor 5” (ACS Chemical Biology, 2022)
# Biological target: human mGlu5 (Homo sapiens, UniProt P41594)
# Test: Radioligand displacement assay (radiolabeled MPEP) on membranes of HEK293 cells stably expressing mGlu5
# Conditions: Ki, radioligand displacement; mean ± SEM of two experiments
# Procedure: Treated cells were harvested with PBS/2 mM EDTA and washed three times with ice-cold PBS and frozen at −80 °C. The frozen cell pellet was resuspended in membrane buffer (25 mM Tris/7.4, 250 mM sucrose, 2.5 mM EDTA, 2 ug/ml aprotinin, 0.5 ug/ml leupeptin and 200 nM PMSF) and homogenized with a polytron 20–30 s at maximum power. After centrifugation at 18,000 RPM for 30 min at 4 °C, the pellet was resuspended in ice-cold membrane buffer, hand-homogenized, and centrifuged as described above. This pellet was further resuspended in ice-cold membrane buffer. The protein content was measured using the Bradford method with bovine serum albumin as the standard. The membrane homogenate was frozen at −80 °C before use. After thawing, the membranes were washed once and resuspended in ice-cold 50 mM Tris–HCl, 0.9% NaCl, pH 7.4 buffer. All incubations were performed at room temperature. For the displacement binding experiments, 15 μg of membranes were incubated with 5 nM the radioligand in the presence of 10 varying concentrations of the test compound for 2 h at room temperature with shaking. At the end of the respective incubations, the suspension was filtered onto PerkinElmer GF/C glass fiber filters (1450–421) pre-soaked in 0.5% polyethyleneimine and washed rapidly four times using a Tomtec Harvester 96 Mach III cell harvester (Tomtec, Hamden, CT) with 5 mL of cold wash buffer (50 mM Tris–HCl, pH 7.4). The radioactivity trapped on the filters was measured after heat sealing the filters with MeltiLexTM A (PerkinElmer, 1450–441) in a 1450 MicroBeta TriLux counter (PerkinElmer). […] IC50 values were derived from the inhibition curve, and Ki values were calculated according to the Cheng-Prusoff equation of Ki = IC50/(1 + [L]/Kd),[61] where [L] is the concentration of radioligand and Kd is its dissociation constant at the receptor, derived from the saturation isotherm.
# human mGlu5, sequence (P41594 21-1212): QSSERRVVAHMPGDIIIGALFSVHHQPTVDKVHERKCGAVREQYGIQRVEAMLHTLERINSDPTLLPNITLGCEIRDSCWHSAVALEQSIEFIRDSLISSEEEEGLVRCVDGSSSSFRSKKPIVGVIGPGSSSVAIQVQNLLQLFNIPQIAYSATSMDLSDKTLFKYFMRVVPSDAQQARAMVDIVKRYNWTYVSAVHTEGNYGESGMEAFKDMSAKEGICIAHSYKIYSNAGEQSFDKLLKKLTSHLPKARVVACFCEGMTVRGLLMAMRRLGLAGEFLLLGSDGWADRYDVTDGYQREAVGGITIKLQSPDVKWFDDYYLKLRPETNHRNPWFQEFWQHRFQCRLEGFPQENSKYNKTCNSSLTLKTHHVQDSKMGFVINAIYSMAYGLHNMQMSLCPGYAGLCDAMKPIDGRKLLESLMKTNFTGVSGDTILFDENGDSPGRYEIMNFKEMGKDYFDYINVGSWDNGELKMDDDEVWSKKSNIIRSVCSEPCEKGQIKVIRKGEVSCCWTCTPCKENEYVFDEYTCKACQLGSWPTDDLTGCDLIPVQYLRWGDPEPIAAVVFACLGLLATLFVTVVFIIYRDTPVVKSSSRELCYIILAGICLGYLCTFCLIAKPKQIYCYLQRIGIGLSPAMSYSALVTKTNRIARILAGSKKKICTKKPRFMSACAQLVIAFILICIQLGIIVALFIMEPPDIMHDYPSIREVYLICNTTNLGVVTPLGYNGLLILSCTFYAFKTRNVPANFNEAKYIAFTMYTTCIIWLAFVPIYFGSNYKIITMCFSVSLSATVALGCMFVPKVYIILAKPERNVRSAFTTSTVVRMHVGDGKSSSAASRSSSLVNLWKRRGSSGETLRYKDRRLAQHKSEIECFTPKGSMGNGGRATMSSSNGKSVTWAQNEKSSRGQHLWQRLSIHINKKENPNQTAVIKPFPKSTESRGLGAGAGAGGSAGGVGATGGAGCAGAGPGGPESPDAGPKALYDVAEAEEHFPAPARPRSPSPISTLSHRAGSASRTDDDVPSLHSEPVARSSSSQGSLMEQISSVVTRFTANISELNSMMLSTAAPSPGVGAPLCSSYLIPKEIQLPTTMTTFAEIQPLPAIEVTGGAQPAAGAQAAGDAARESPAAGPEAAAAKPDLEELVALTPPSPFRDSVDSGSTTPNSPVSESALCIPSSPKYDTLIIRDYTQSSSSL
row,Structure (SMILES),Ki
1,N#Cc1ccc(NCC#Cc2ccccc2)cc1 [F3],3.4 ± 0.2 µM
2,N#Cc1cccc(COc2ccccc2F)c1 [F4],8.6 ± 0.1 µM

# Second part, the compound after the results:
row,Ki,Structure (SMILES)
1,7.3 ± 1.3 µM,Cc1nc(-c2ccccc2)sc1C(C)N(C)C(=O)c1cnns1 (centres unmarked) [L6]
2,7.9 ± 0.6 µM,CN(Cc1cnn(-c2ccc(F)cc2)c1)c1nc(-c2ccccc2)no1 [L7]
3,4.3 ± 0.9 µM,CC(c1nc(-c2ccco2)no1)n1nnc(-c2cccc(F)c2)n1 (centres unmarked) [L5]
4,4 ± 0.5 µM,CN(Cc1cnn(-c2ccccc2)c1)c1noc(-c2ccccc2)n1 [L4]
5,3.6 ± 0.1 µM,COc1ccc(Cn2cccc2-c2nc(-c3ccncc3)no2)cc1 [L3]

# Same assay, conditions: Table S1; radioligand displacement at 30 µM; mean ± SEM of two experiments
row,Structure (SMILES),Inhibition at 30 µM
1,O=C(Nc1ccccc1F)OCc1cccnc1 [F34],26 ± 4%
2,c1ccc(-c2nsc(-n3ccnc3)n2)cc1 [F43],23 ± 2%
3,CCN(CC(O)c1ccccc1)c1ccccc1 (centres unmarked) [F29],27 ± 1%
4,COCc1cccc(Nc2ccnc(C#N)c2)c1 [F19],32 ± 4%
5,C#Cc1cccc(NC(C)c2ccccc2)c1 (centres unmarked) [F44],23 ± 4%
6,c1ccc(Cn2nnc(-c3ccncc3)n2)cc1 [F38],25 ± 3%
7,Oc1ccccc1-c1n[nH]c(-c2ccncc2)n1 [F28],27 ± 3%
8,Cn1ccnc1SCC=Cc1ccccc1 [F20],31 ± 1%
9,COc1ccc(CNC(=O)c2csnn2)cc1 [F25],28 ± 9%
10,CN(Cc1cn2ccccc2n1)c1ccccc1 [F22],31 ± 1%
11,N#Cc1ccc(OC/C=C/c2ccccc2)nc1 [F11],35 ± 6%
12,O=C(NCc1ccncc1)c1cccc(Cl)c1 [F36],25 ± 3%
13,c1ccc(-n2cc(CCn3cnnc3)cn2)cc1 [F17],33 ± 3%
14,CC(C)C(=O)N(C)Cc1nc2ccccc2[nH]1 [F45],22 ± 9%
15,N#Cc1ccnc(Nc2ccc3c(c2)OCO3)c1 [F30],27 ± 3%
16,CC(=O)c1cccc(NCc2ccccc2)c1 [F9],38 ± 1%
17,C=CCN1CC(c2nc3ccccc3[nH]2)CC1=O (centres unmarked) [F49],20 ± 1%
18,CC[C@H](Nc1cnn(CC)c1)c1ccc(C)cc1 [F40],24 ± 7%
19,CC1CC1C(=O)N(C)CCOc1ccccc1 (centres unmarked) [F15],33 ± 9%
20,CN(C)C(=O)c1cc(OCc2ccccc2)no1 [F32],27 ± 1%
21,CC[C@@H]1CCCC(C(=O)Nc2ccccc2)=C1O [F46],22 ± 1%
22,COc1ccc(CNC(=O)c2ccncc2)cc1 [F42],24 ± 8%
23,CC(c1nc(-c2ccccc2)no1)n1ccnc1 (centres unmarked) [F21],31 ± 1%
24,COCc1cccc(Nc2cc(Cl)ncn2)c1 [F12],35 ± 10%
25,Nc1ccccc1-c1nc2cc(F)c(F)cc2[nH]1 [F59],9 ± 1%
26,O=C(CNC(=O)c1ccco1)Nc1ccccc1 [F37],25 ± 4%

row,Structure (SMILES),Inhibition at 30 µM
1,COCc1ccc(CNc2ncccc2F)cc1 [F57],17 ± 3%
2,Cc1cccc(C(=O)NC(C)c2ccncc2)n1 (centres unmarked) [F39],24 ± 9%
3,Nc1ccccc1Sc1nc2ccccc2[nH]1 [F51],20 ± 14%
4,CN(CCc1ccccn1)c1ccc(Cl)nn1 [F48],21 ± 1%
5,C=CCNC(=O)c1ccc(Oc2ccccc2)o1 [F13],35 ± 10%
6,OCc1cccc(NCc2cccc(Cl)c2)c1 [F26],28 ± 15%
7,CC(=O)c1nc(Nc2ccccc2)sc1C [F50],20 ± 9%
8,CC(C)c1nccn1Cc1nc2ccccc2[nH]1 [F16],33 ± 5%
9,Fc1ccc(F)c(NCCCn2ccnc2)c1 [F55],19 ± 5%
10,Clc1cccc(OCCCn2ccnc2)c1 [F56],18 ± 4%
11,Cc1ccccc1CNc1ccc(F)c(C#N)c1 [F18],33 ± 9%
12,CCC(NC(=O)c1ccccn1)c1ccccc1 (centres unmarked) [F52],19 ± 5%
13,Cc1cccc(NC(=O)Cc2ccc(O)cc2)c1 [F5],42 ± 5%
14,Cc1ccccc1NC(=O)c1ccnc(Cl)c1 [F33],26 ± 11%
15,CC(O)c1ccc(OCc2ccc(F)cc2)cc1 (centres unmarked) [F47],21 ± 3%
16,CCOc1cccc(CNC(=O)C2CC=CC2)c1 [F7],39 ± 7%
17,Cc1ccc(C(C)NC(=O)c2ccc(F)cc2)o1 (centres unmarked) [F10],35 ± 8%
18,OC(c1ccccc1)c1nc2cc(F)ccc2[nH]1 (centres unmarked) [F35],25 ± 12%
19,CCn1cnnc1CNC(=O)c1cccc(C)c1 [F24],30 ± 1%
20,Clc1ncnc2cc(-c3ccccc3)[nH]c12 [F41],24 ± 2%
21,Cc1cc(CN(C)C(=O)Nc2ccccc2)on1 [F14],33 ± 4%
22,CC(O)c1cccc(OCc2ccccc2)c1 (centres unmarked) [F27],27 ± 3%
23,Cc1cccn2cc(Cn3ccccc3=O)nc12 [F58],16 ± 5%
24,Cc1cc(Cn2ccc(-c3ccccc3)n2)on1 [F53],19 ± 2%
25,Cc1ccoc1-c1nc(Cc2ccccc2)n[nH]1 [F23],30 ± 7%

# Further lines, results first:
row,Inhibition at 30 µM,Structure (SMILES)
1,27 ± 11%,O=C(CSc1ccc(-n2cccn2)nn1)Nc1ccccc1Cl [L39]
2,23 ± 4%,Cc1csc(CNC(=O)N2CCC(COCc3ccccc3)C2)n1 (centres unmarked) [L48]
3,38 ± 12%,CC1CN(C(=O)Nc2cccc(C#N)c2)CC(c2ccccc2)O1 (centres unmarked) [L14]
4,25 ± 7%,O=C(COc1ccccc1)Nc1cccc(NC(=O)c2ccncc2)c1 [L45]
5,30 ± 9%,O=C(NCc1ccnc(-n2cccn2)c1)c1ccc(Br)o1 [L29]
6,26 ± 12%,c1ccc(OCc2noc(NCc3nc4ccccc4s3)n2)cc1 [L43]
7,39 ± 6%,O=C(NCc1ccc(-n2cccn2)cc1)c1cc2ccccc2s1 [L12]
8,24 ± 3%,CCCOc1ccc(N2CC(C(=O)Nc3ccccn3)CC2=O)cc1 (centres unmarked) [L47]
9,31 ± 7%,Cc1ccc(C2CC2c2nc(CNC(=O)c3ccccc3)no2)s1 (centres unmarked) [L26]
10,18 ± 3%,Cc1ccc(CNC(=O)c2ccn(COc3ccc(F)cc3)n2)o1 [L54]
11,15 ± 1%,Cc1ccc(OCC(=O)N2CC(c3nc(-c4ccco4)no3)C2)cc1 [L59]
12,26 ± 5%,Cc1ccc(F)c(NC(=O)C2CC(=O)N(CCc3ccccc3)C2)c1 (centres unmarked) [L42]
13,40 ± 4%,O=C(NCc1ccc(N2CCCC2)nc1)c1cnn(-c2ccccc2)c1 [L11]
14,41 ± 7%,N#Cc1cc(CNc2ccn(-c3ncccc3Cl)n2)ccc1F [L10]
15,32 ± 3%,O=C(CCc1cccnc1)N1CCCC(COc2cccc(F)c2)C1 (centres unmarked) [L24]
16,33 ± 12%,O=C(CSc1n[nH]c(-c2cccnc2)n1)Nc1cccc(Cl)c1 [L21]
17,31 ± 7%,O=C(NCc1cccnc1)c1ccc(COc2ccccc2)o1 [L27]
18,32 ± 1%,O=C(Nc1cccc(F)c1)C1CCN(c2ccc(F)cc2)C1=O (centres unmarked) [L23]
19,27 ± 3%,CN(Cc1cc(-c2ccccc2)no1)C(=O)CCOc1ccccc1 [L40]
20,17 ± 2%,O=C(COc1ccc2ccccc2c1)N1CC(c2nc(C3CC3)no2)C1 [L57]
21,29 ± 8%,c1ccc(Cc2n[nH]c(-c3ccncc3)n2)cc1 [L36]
22,20 ± 1%,CCN(Cc1nc(-c2ccncc2)no1)c1ccccc1 [L52]

row,Inhibition at 30 µM,Structure (SMILES)
1,34 ± 3%,O=C(NCc1ccccc1)c1csc(COc2ccc(F)cc2)n1 [L19]
2,20 ± 1%,O=C(COc1ccccc1)NCc1cc(-c2ccc(F)cc2)on1 [L50]
3,36 ± 1%,O=C(Nc1cccc(OCc2ccccn2)c1)c1cccc(F)c1 [L16]
4,24 ± 3%,O=C(NCc1ccnc(OCc2ccccc2)c1)c1cccc(F)c1 [L46]
5,34 ± 5%,CN(Cc1cnn(-c2ccccc2)c1)C(=O)c1cc(-c2ccco2)on1 [L20]
6,29 ± 4%,CCc1noc(COc2cccc(NC(=O)c3ccccc3)c2)n1 [L37]
7,16 ± 2%,CCOc1ccc(C(=O)N2CC(OCc3ccc(F)cc3)C2)cc1 [L58]
8,29 ± 3%,O=C(CCc1ccncc1)N1CC(n2cc(-c3ccccc3)nn2)C1 [L32]
9,19 ± 2%,CC(NC(=O)c1cccc(F)c1)c1ccc(-n2cncn2)cc1 (centres unmarked) [L53]
10,18 ± 3%,O=C(CSc1ccccc1)N1CC(OCc2cccc(F)c2)C1 [L55]
11,34 ± 1%,O=C(NCc1cc(-c2ccco2)on1)c1cccc(Cl)c1 [L18]
12,18 ± 6%,O=C(Nc1ccc(F)c(F)c1)C1(c2cc(-c3ccco3)on2)CC1 [L56]
13,29 ± 1%,CCCn1cc(C(=O)Nc2cccc(NC(=O)c3ccncc3)c2)cn1 [L34]
14,35 ± 3%,CSc1ccc(C(=O)N(C)Cc2nc3ccccc3[nH]2)o1 [L17]
15,37 ± 6%,Cc1noc(CCC(=O)N2CCC(CSc3ccccc3)C2)n1 (centres unmarked) [L15]
16,26 ± 13%,Cc1cccc(-c2c[nH]c(C3CCCN3C(=O)c3ccccn3)n2)c1 (centres unmarked) [L44]
17,27 ± 1%,O=C(Nc1ccccn1)c1cc2occc2n1Cc1ccccc1 [L38]
18,22 ± 1%,O=C(c1ccc(Cl)s1)N1CC(c2nc(-c3ccncc3)no2)C1 [L49]
19,29 ± 4%,Cc1ccc(Cn2cccc2-c2nc(-c3ccncc3)no2)cc1 [L31]
20,26 ± 2%,CC(NC(=O)COc1ccc(Cl)cc1)C(=O)Nc1ccccc1 (centres unmarked) [L41]
21,20 ± 6%,Cc1ccc(C(=O)Nc2cccc(NC(=O)c3ccncc3)c2)s1 [L51]
22,30 ± 5%,Cc1ccc(Cn2ccnc2C(=O)Nc2ccccc2)cc1 [L30]

# Same assay, conditions: Table S1; radioligand displacement; mean ± SEM of two experiments
row,Ki,Structure (SMILES)
1,11 ± 1 µM,CC(CCOc1ccccc1)c1nc(-c2ccc(C#N)cn2)no1 (centres unmarked) [L8]

# Same assay, conditions: radioligand displacement; mean ± SEM of two experiments
row,Ki,Structure (SMILES)
1,16 µM,O=C(Nc1cccc(Cn2ccnc2)c1)c1cccc(F)c1 [L9]
